Data published in publication PMC5656594 (Scientific Reports, 2017).

Key:
wt IN^PFV (IN; WT) = molecular target: T1, wt IN^PFV (IN; WT) (Human spumaretrovirus, UniProt P14350); assay: Inhibition of IN-viral DNA binding by steady-state fluorescence anisotropy of 4 nM Fl-PFV^CAAT with 400 nM IN, 10 mM Mg2+, 25 °C.; format: biochemical; settings: n = 2; read-out: IC50 (IN-DNA interaction)
T1 construct: gene pol; full-length, His-tagged, expressed in E. coli BL21-CodonPlus (DE3)-RIPL
Procedure: (§1) Figure S7. Differential effect of INSTI and INBI compounds on the INPFV-viral DNA interaction.
(§2) The formation of IN-DNA complexes was measured by steady-state fluorescence anisotropy using 400 nM INPFV and 4 nM Fl-PFVCAAT (also named Fl-DNA#1) in the presence of 10 mM Mg2+ and […]
(§3) In each plot, the starting r value (≈ 0.20) corresponds to the typical value found at saturating concentrations of IN (see Fig. S6).
(§4) The INBI compound FZ41, a member of the styrylquinoline family of inhibitors, was used as a control […]
(§5) show mean ± SD values from two independent experiments. […]
(§6) IN^PFV binding to DNA was measured by fluorescence anisotropy on a Beacon Instrument (Panvera, Madison, WI, USA) as previously described[25],[51], using a double-stranded 21-mer Fl-labeled DNA mimicking the PFV U5 LTR end also referred to as DNA#1 in Table 1 (labeled at the 5′-end of the reactive strand). IN binding to Fl-PFV^CAAT (or Fl-DNA#1) was compared to the binding to other DNA sequences (Fl-DNA#8 #9 #13). DNA annealing was obtained by mixing equimolar amounts of complementary strands in buffer A, heating to 85 °C for 5 min and slow cooling to 25 °C. DNA-binding experiments were performed at 25 °C in buffer A.

[1] = molecular target: T2, IN^PFV-viral DNA interaction (Human spumaretrovirus, UniProt P14350); assay: IN-viral DNA interaction by steady-state fluorescence anisotropy of Fl-DNA with increasing drug concentrations; format: binding, prototype foamy virus (PFV); settings: 400 nM IN^PFV, 4 nM Fl-PFV^CAAT, 10 mM Mg2+, up to 20 µM drug; means INSTI did not prevent IN-DNA interactions
T2 construct: The full-length wt IN^PFV, the three single mutants of the catalytic triad; His; made in house; host or cells: E. coli BL21-CodonPlus (DE3)-RIPL
Procedure: Their incapability to prevent or disrupt IN-viral DNA complexes was consistently observed over the whole concentration range, regardless of the INSTI tested (Supplementary Fig. S7).
as §6, §1, §2, §3, §4, §5

IN = settings: INSTIs; cited from earlier work

COc1cc(/C=C/c2ccc3ccc(C(=O)O)c(O)c3n2)cc(O)c1O [FZ41, FZ41 (styrylquinoline family INBI compound)]
IC50 (wt IN^PFV (IN; WT)): ~800 nM

Cc1nnc(C(=O)NC(C)(C)c2nc(C(=O)NCc3ccc(F)cc3)c(O)c(=O)n2C)o1 [RAL, Raltegravir]
r value of Fl-DNA (IN-DNA complex) on increasing INSTI concentration [1]: remained constant | IC50 values (IN): low-nanomolar range

COc1cc2c(cc1Cc1cccc(Cl)c1F)c(=O)c(C(=O)O)cn2[C@H](CO)C(C)C [EVG, elvitegravir]
r value of Fl-DNA (IN-DNA complex) on increasing INSTI concentration [1]: remained constant | IC50 values (IN): low-nanomolar range
